Assay results reported in PubChem BioAssay (NCI).
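Cells were grown in 96-well plates and exposed to each compound for 48 hours at five concentrations; endpoints were interpolated linearly between bracketing concentrations, or set to the highest concentration if not reached. The concentration for 50% growth inhibition is given as GI50. TGI is the concentration that stops growth completely.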

Tests used:
Experiment in all cases: inhibition of tumour cell growth, NCI panel, 48 h
[1] = tested on: SK-MEL-5 melanoma
[2] = tested on: COLO 205 colon
[3] = tested on: IGROV1 ovarian
[4] = tested on: NCI-H23 lung
[5] = tested on: NCI-H226 lung
[6] = tested on: CCRF-CEM leukemia
[7] = tested on: A498 renal
[8] = tested on: RPMI-8226 leukemia
[9] = tested on: HL-60(TB) leukemia
[10] = tested on: T-47D breast

| Compound | TGI [1] [µM] | TGI [2] [µM] | TGI [3] [µM] | TGI [4] [µM] | TGI [5] [µM] | TGI [6] [µM] | TGI [7] [µM] | TGI [8] [µM] | TGI [9] [µM] | TGI [10] [µM] | GI50 [7] [µM] |
| --- | --- | --- | --- | --- | --- | --- | --- | --- | --- | --- | --- |
| C1=NN2C(c3ccccc3)=NOC2C2C(c3ccccc3)=NOC12 (configuration not stated) | > 100 | > 100 | > 100 | > 100 | > 100 |  |  |  |  |  |  |
| c1cc2c(cc1C1OCC3C(c4ccc5c(c4)OCO5)OCC13)OCO2 (configuration not stated) | 83.7 | > 100 | > 100 | > 100 | > 100 | > 100 | > 100 |  |  |  |  |
| C#CN1C(=O)c2c(c(-c3ccccc3)c(-c3ccc(Oc4ccc(-c5c(-c6ccccc6)c6c(c(-c7ccccc7)c5-c5ccccc5)C(=O)N(C#C)C6=O)cc4)cc3)c(-c3ccccc3)c2-c2ccccc2)C1=O | > 100 | > 100 | > 100 | > 100 |  | > 100 |  | > 100 | > 100 |  |  |
| CN1C(=O)C(=Cc2ccc(Br)cc2)C(=O)N(C)C1=O | > 100 | > 100 |  | > 100 | > 100 | > 100 | > 100 | > 100 |  | > 100 |  |
| COc1ccccc1N1CCN(S(=O)(=O)c2ccc(Cl)cc2)C1=N | > 100 | > 100 |  | > 100 |  |  | > 100 | > 100 |  | > 100 |  |
| COc1ccc(/C=C2/SC(=Nc3ccccc3)N(NC(=O)Cc3ccccc3)C2=O)cc1 | > 100 | > 100 | > 100 | > 100 | > 100 | > 100 | > 100 | > 100 | > 100 | > 100 |  |
| CC1=CC2(C)C=C[C@@H]1C(=O)[C@@]1(C)CC[C@@](O)(C(C)C)[C@H]1CC2 | 34 | 40.2 | 51.7 | 50.4 | 43.8 | 53.4 | 45.6 | 62 |  | 88 |  |
| Cc1c(-c2coc(-c3ccc([N+](=O)[O-])cc3)n2)c(=O)n(-c2ccccc2)n1C | > 100 | > 100 | > 100 | > 100 | > 100 | > 100 | > 100 | > 100 | > 100 |  |  |
| C=C1N(C)c2ccc(S(=O)(=O)c3ccc4c(c3)C(C)(C)C(=C)N4C)cc2C1(C)C | 43.6 | 29.8 | > 100 | > 100 | > 100 | > 100 | > 100 | 35.5 | > 100 | > 100 |  |
| O=c1[nH]c(=O)n([C@H]2C[C@@H](CO)[C@@H](O)C2)cc1I | > 100 | > 100 | > 100 | > 100 | > 100 | > 100 | > 100 | > 100 | > 100 |  |  |
| Cc1n[nH]c(=O)n1/N=C/c1ccco1 |  | > 100 |  | > 100 | > 100 | > 100 | > 100 | > 100 |  | > 100 |  |
| COP12(OC)NC(=O)OC1(C(F)(F)F)c1ccccc1O2 (configuration not stated) | > 100 |  | > 100 | > 100 | > 100 | > 100 |  |  | > 100 |  |  |
| N#Cc1c(C#N)c(SSc2c(C#N)c(C#N)c(N)n2-c2cccc3ccccc23)n(-c2cccc3ccccc23)c1N | 41.8 | 10.6 | > 100 | > 63.2 | 56.3 |  | > 63.6 | > 100 |  | 5.47 |  |
| O=C1CCC(=O)c2ccccc2N1 | > 100 | > 100 | > 100 | > 100 | > 100 | > 100 | > 100 | > 100 | > 100 |  |  |
| CN1CCS(=O)(=O)NC(Cc2ccccc2)C(=O)N2CCCC2C1=O (configuration not stated) | > 100 | > 100 | > 100 | > 100 | > 100 | > 100 | > 100 | > 100 | > 100 |  |  |
| O=c1cccccc1[O-].O=c1cccccc1[O-].O=c1cccccc1[O-].[Nd+3] | > 100 |  | > 100 | > 100 | > 100 | > 100 | > 100 | > 100 | > 100 |  | 81.4 |
| CCOC(=O)c1ccc(N=C2Sc3nc4ccccc4n3C2=Nc2ccc(C(=O)OCC)cc2)cc1 | 63.2 | > 100 | 60.4 | 83.8 | 73.8 | > 100 | 81.4 |  | > 100 | > 100 |  |
| COc1cc2ccnc(C#N)c2cc1OCc1ccccc1 | > 100 |  |  | > 100 |  | > 100 | > 100 | > 100 |  |  |  |
| CN1N=C(c2ccncc2)OC1c1cccc(F)c1 (configuration not stated) | > 100 | > 100 | > 100 | > 100 | > 100 | > 100 | > 100 | > 100 | > 100 | > 100 |  |
| COC1(OC)CCN(Cc2ccccc2)C1=O | 29.2 | 12.5 | 26.8 | 43.8 | 38.9 | 6.3 | 44 | 42.8 | 4.15 | 18.8 |  |
